In patent US11679111B2, “Fatty acid synthase inhibitors” (priority 2016, dated 2023):

Experiments:
[1] = system: SKBR3 cells; test: Caspase 3/7 activity assay; format: cell-based; settings: SKBR3, 24 hours
Procedure: (§1) The assay was performed using a similar protocol to the one described by Fritz et al (Fritz et al., 2001). Cells were seeded at a density of 10,000 cells/well and treated with different concentrations of HS-106 or C75. After 24 hours, to each well, 50 μl of Caspase assay/lysis buffer (50 mM HEPES pH 7.5, 100 mM KCl, 5 mM EDTA, 10 mM MgC12, 10 mM CHAPS, 20% Sucrose, 10 mM DTT, 10 μM of (Z-DEVD)2-Rh110 (Santa Cruz Biotech) and complete protease inhibitor (Roche))was added. After 6 hours of incubation at 37° C., fluorescence was measured at Ex/Em: 485/535 nm.

[2] = system: BT474 cells; test: Caspase 3/7 activity assay; format: cell-based
Procedure: as §1

[3] = system: HIV-1; format: cell-based; settings: supernatants on fresh TZM-bl indicator cells
Procedure: (A) TZM-bl cells were transfected with pNL4-3 provirus plasmid for 48 h in the presence or absence of 10 μM Fasnall or C75 or DMSO (0.01%). Intracellular expression of HIV-1 proteins was monitored by HIVIG-western blot, and β-actin was used as loading control. (B) Supernatant associated virion production was monitored using a p24 ELISA. (C) 48 hours post-transfection, cell culture supernatants were removed and incubated with fresh TZM-bl (indicator) cells for an additional 48 hrs. Values expressed as the mean±standard deviation, and are representative of three independent experiments. p-values were generated with student's t-test. Molecular weight markers (kD) indicated in right margin.
To test further the hypothesis that HIV-1 replication requires FASN activity during the late stages of viral replication, TZM-bl or SupT1 (data not shown) cells were transfected with a HIV-1 provirus (pNL43) in the presence or absence of Fasnall or C75. […] Thus, FASN inhibition reduces nascent HIV-1 virion production without reducing HIV-1 protein synthesis.

[4] = system: MMTV-Neu model of HER2+ breast cancer; test: Efficacy in MMTV-Neu model of HER2+ breast cancer; format: in vivo, mice; settings: HS-106 30 pmol/kg BIW, Carboplatin 143 pmol/kg weekly, 21 days
[5] = system: FASN activity in HepG2 cells; test: [3H] glucose and acetate incorporation into lipids in HepG2 cells; format: cell-based; settings: FIG. 2D, cell line not stated
Procedure: To specifically identify inhibitors of FASN targeting its nucleotide binding pockets Cibacron blue Sepharose was utilized. This medium has been used previously to purify NAD and NADP binding proteins from crude tissues extracts (Miyaguchi et al., 2011; Muratsubaki et al., 1994). FASN enriched extract from lactating pig mammary gland was bound to the resin and labeled with cysteine reactive fluorescein. […] Next, the molecules were tested for their ability to inhibit FASN activity in a HepG2 cell based assay that measured the incorporation of ^3H glucose into lipids (FIG. 1B and FIG. 9).
Incorporation of radiolabeled glucose or acetate in total lipids was measured according to published methods (Haystead and Hardie, 1986). HepG2 cells (80% confluent in 12 wells plates) were starved overnight in MEM Alpha, the medium was then changed with DMEM medium containing 0.1 g/L glucose 10% FBS and 5 μM insulin and 1 μCi 3-[^3H] D-glucose or 1 μCi [^3H]-acetate in addition to different concentrations of each compound. After incubation for 1 hour at 37° C., 5% CO2, the cells were washed with ice cold PBS and detached by treating with 100 μl trypsin for 10 min then 1 ml of ice cold PBS was added. The cells suspension was then sonicated for 3 times in 30 seconds intervals and kept on ice. From each well 1 ml of cell lysate was added to a 4 ml scintillation vial and 2 ml of MicroScint-E was added. The vials were mixed thoroughly then centrifuged for 30 min at 3000 rpm and the ^3H radioactivity was measured by liquid scintillation counting.

Compound: C=C1C(=O)OC(CCCCCCCC)C1C(=O)O (centres unmarked) [C75, reference compound]
- caspase activity relative to MCF10A cells [1]: 2 fold
- caspase activity relative to MCF10A cells ([2]; BT474, 24 hours): 10 fold
- number of infectious HIV-1 particles [3]: similarly reduced the number of infectious HIV-1 particles

Compound: N.N.O=C([O-])C1(C(=O)[O-])CCC1.[Pt+2] [Carboplatin, reference compound]
- tumors with objective response of stable disease or better [4]: 25%

Compound: Cc1sc2ncnc(N[C@@H]3CCN(Cc4ccccc4)C3)c2c1C [HS-79, (R)—N-(1-benzylpyrrolidin-3-yl)-5,6-dimethylthieno[2,3-d]pyrimidin-4-amine]
- inhibition of tritiated acetate incorporation into lipids [5]: inhibit the incorporation of tritiated acetate into lipids

Compound: Cc1sc2ncnc(N[C@H]3CCN(Cc4ccccc4)C3)c2c1C [HS-80, (S)—N-(1-benzylpyrrolidin-3-yl)-5,6-dimethylthieno[2,3-d]pyrimidin-4-amine]
- inhibition of tritiated acetate incorporation into lipids [5]: inhibit the incorporation of tritiated acetate into lipids

Compound: CCCCCCC(=O)CCCCCC/C=C/C[C@@H](O)[C@H](O)[C@@](N)(CO)C(=O)O [Myriocin]
- rescue from Fasnall induced apoptosis by ceramide synthesis inhibitor ([2]; BT474, 10 μM pretreatment, 24 hours): modestly rescue the cells

Compound: CCCCCCCCCCCCCCOc1ccc(C(=O)O)o1 [TOFA]
- reversal of HS-106 induced caspase 3/7 activity by pretreatment ([2]; BT474, 15 μM TOFA pretreatment): completely reverse the effect of HS-106
